Measurements reported in PubChem BioAssay AID2060327 (Molecular Pharmacology Branch, DTP, NCI, 2025).
“And” between values parts separate entries of the source, which are not always exact repeats. Equal values may be shown once.

System: PC-3 multi-cell spheroids, viability
Assay: Anticancer human tumor PC-3 cell line growth inhibition [IpAb];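 also: spheroids exposed to compounds for 7 days before readout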;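 as to viability, T/C: 100% = DMSO vehicle control wells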
Details: for viability, T/C: stronger effect = lower value; active = viability on the fitted dose curve at most 10% of control; inactive = the rest
How it was run: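 Multi-cell spheroids of 60% tumour cells, 25% HUVEC and 15% MSC in ultra-low-attachment U-bottom wells, treated with agents combined with ipatasertib or abemaciclib. Half-log ranges top out near clinical Cmax, or 10 microM when Cmax is unknown.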

[1] = curve of first compound, second compound 0.01 µM
[2] = curve of first compound, second compound 0.0316 µM
[3] = curve of first compound, second compound 0.1 µM
[4] = curve of first compound, second compound 0.316 µM
[5] = curve of first compound, second compound 1 µM
[6] = second compound 0.01 µM, first compound 0.00949 µM
[7] = second compound 0.01 µM, first compound 0.03 µM
[8] = second compound 0.01 µM, first compound 0.0949 µM
[9] = second compound 0.01 µM, first compound 0.3 µM
[10] = second compound 0.0316 µM, first compound 0.00949 µM
[11] = second compound 0.0316 µM, first compound 0.03 µM
[12] = second compound 0.0316 µM, first compound 0.0949 µM
[13] = second compound 0.0316 µM, first compound 0.3 µM
[14] = second compound 0.1 µM, first compound 0.00949 µM
[15] = second compound 0.1 µM, first compound 0.03 µM
[16] = second compound 0.1 µM, first compound 0.0949 µM
[17] = second compound 0.1 µM, first compound 0.3 µM
[18] = second compound 0.316 µM, first compound 0.00949 µM
[19] = second compound 0.316 µM, first compound 0.03 µM
[20] = second compound 0.316 µM, first compound 0.0949 µM
[21] = second compound 0.316 µM, first compound 0.3 µM
[22] = second compound 1 µM, first compound 0.00949 µM
[23] = second compound 1 µM, first compound 0.03 µM
[24] = second compound 1 µM, first compound 0.0949 µM
[25] = second compound 1 µM, first compound 0.3 µM
[26] = second compound 0.1 µM, first compound 0.000949 µM
[27] = second compound 0.1 µM, first compound 0.003 µM
[28] = second compound 0.316 µM, first compound 0.000949 µM
[29] = second compound 0.316 µM, first compound 0.003 µM
[30] = second compound 1 µM, first compound 0.000949 µM
[31] = second compound 1 µM, first compound 0.003 µM

Cn1cnc2c(F)c(Nc3ccc(Br)cc3Cl)c(C(=O)NOCCO)cc21 + CCN1CCN(Cc2ccc(Nc3ncc(F)c(-c4cc(F)c5nc(C)n(C(C)C)c5c4)n3)nc2)CC1
> 3000 nM: IC50 [1]
1580 nM: IC50 [3]
1950 nM: IC50 [2]
29.4 nM: IC50 [5]
594 nM: IC50 [4]
inactive: viability, T/C [6] 95% | viability, T/C [7] 86.2% | viability, T/C [8] 91.7% | viability, T/C [9] 87.7% | viability, T/C (second compound 0.01 µM, first compound 0.949 µM) 79.7% | viability, T/C (second compound 0.01 µM, first compound 3 µM) 59.8% | viability, T/C [10] 74.1% | viability, T/C [11] 72.1% | viability, T/C [12] 62.2% | viability, T/C [13] 71.8% | viability, T/C (second compound 0.0316 µM, first compound 0.949 µM) 57% | viability, T/C (second compound 0.0316 µM, first compound 3 µM) 45% | viability, T/C [14] 56% | viability, T/C [15] 58.3% | viability, T/C [16] 58.2% | viability, T/C [17] 49.2% | viability, T/C (second compound 0.1 µM, first compound 0.949 µM) 53.7% | viability, T/C (second compound 0.1 µM, first compound 3 µM) 47.8% | viability, T/C [18] 60.2% | viability, T/C [19] 50.5% | viability, T/C [20] 53.6% | viability, T/C [21] 54.6% | viability, T/C (second compound 0.316 µM, first compound 0.949 µM) 48.1% | viability, T/C (second compound 0.316 µM, first compound 3 µM) 41.5% | viability, T/C [22] 53.2% | viability, T/C [23] 47.3% | viability, T/C [24] 42.6% | viability, T/C [25] 52.1% | viability, T/C (second compound 1 µM, first compound 0.949 µM) 57.2% | viability, T/C (second compound 1 µM, first compound 3 µM) 36.5%

CC(=O)c1c(C)c2cnc(Nc3ccc(N4CCNCC4)cn3)nc2n(C2CCCC2)c1=O + CCN1CCN(Cc2ccc(Nc3ncc(F)c(-c4cc(F)c5nc(C)n(C(C)C)c5c4)n3)nc2)CC1
inactive: viability, T/C (second compound 0.01 µM, first compound 0.000949 µM) 79.2% | viability, T/C (second compound 0.01 µM, first compound 0.003 µM) 68.6% | viability, T/C [6] 70.7% | viability, T/C [7] 61.7% | viability, T/C [8] 62% | viability, T/C [9] 56.6% | viability, T/C (second compound 0.0316 µM, first compound 0.000949 µM) 49.9% | viability, T/C (second compound 0.0316 µM, first compound 0.003 µM) 57.3% | viability, T/C [10] 53.7% | viability, T/C [11] 53.7% | viability, T/C [12] 56.4% | viability, T/C [13] 59.8% | viability, T/C [26] 53.5% | viability, T/C [27] 53.9% | viability, T/C [14] 52.9% | viability, T/C [15] 53.7% | viability, T/C [16] 57.9% | viability, T/C [17] 55.4% | viability, T/C [28] 60% | viability, T/C [29] 56.8% | viability, T/C [18] 63.1% | viability, T/C [19] 64.9% | viability, T/C [20] 65.5% | viability, T/C [21] 60.9% | viability, T/C [30] 58.1% | viability, T/C [31] 60.2% | viability, T/C [22] 57.3% | viability, T/C [23] 57.5% | viability, T/C [24] 51.2% | viability, T/C [25] 55.1%
> 300 nM: IC50 [1] | IC50 [2] | IC50 [3] | IC50 [4] | IC50 [5]

Cn1ncc(Cl)c1-c1cc(C(=O)NC(CN)Cc2cccc(F)c2)sc1Cl (stereo unspecified)
active: viability, T/C (compound 10 µM) 0.14% and 0.16%
212 nM and 165 nM: IC50 (curve of compound)
inactive: viability, T/C (compound 0.0316 µM) 89.7% and 88.1% | viability, T/C (compound 0.1 µM) 62.9% and 60.5% | viability, T/C (compound 0.316 µM) 43.6% and 36.2% | viability, T/C (compound 1 µM) 23% and 19.2% | viability, T/C (compound 3.16 µM) 17.9% and 16.2%

Cn1ncc(Cl)c1-c1cc(C(=O)NC(CN)Cc2cccc(F)c2)sc1Cl (stereo unspecified) + CCN1CCN(Cc2ccc(Nc3ncc(F)c(-c4cc(F)c5nc(C)n(C(C)C)c5c4)n3)nc2)CC1
101 nM: IC50 [2]
62.9 nM: IC50 [3]
127 nM: IC50 [1]
active: viability, T/C (second compound 0.01 µM, first compound 10 µM) 0.14% | viability, T/C (second compound 0.0316 µM, first compound 3.16 µM) 13.8% | viability, T/C (second compound 0.0316 µM, first compound 10 µM) 0.1% | viability, T/C (second compound 0.1 µM, first compound 1 µM) 13.3% | viability, T/C (second compound 0.1 µM, first compound 3.16 µM) 9.97% | viability, T/C (second compound 0.1 µM, first compound 10 µM) 0.1% | viability, T/C (second compound 0.316 µM, first compound 3.16 µM) 11.6% | viability, T/C (second compound 0.316 µM, first compound 10 µM) 0.16% | viability, T/C (second compound 1 µM, first compound 3.16 µM) 12.1% | viability, T/C (second compound 1 µM, first compound 10 µM) 0.16%
52.6 nM: IC50 [4]
inactive: viability, T/C (second compound 0.01 µM, first compound 0.0316 µM) 70.5% | viability, T/C (second compound 0.01 µM, first compound 0.1 µM) 55.3% | viability, T/C (second compound 0.01 µM, first compound 0.316 µM) 35.8% | viability, T/C (second compound 0.01 µM, first compound 1 µM) 17.5% | viability, T/C (second compound 0.01 µM, first compound 3.16 µM) 15.5% | viability, T/C (second compound 0.0316 µM, first compound 0.0316 µM) 57.2% | viability, T/C (second compound 0.0316 µM, first compound 0.1 µM) 53% | viability, T/C (second compound 0.0316 µM, first compound 0.316 µM) 26.9% | viability, T/C (second compound 0.0316 µM, first compound 1 µM) 13.8% | viability, T/C (second compound 0.1 µM, first compound 0.0316 µM) 53.2% | viability, T/C (second compound 0.1 µM, first compound 0.1 µM) 48.3% | viability, T/C (second compound 0.1 µM, first compound 0.316 µM) 17.5% | viability, T/C (second compound 0.316 µM, first compound 0.0316 µM) 56.5% | viability, T/C (second compound 0.316 µM, first compound 0.1 µM) 44% | viability, T/C (second compound 0.316 µM, first compound 0.316 µM) 19.4% | viability, T/C (second compound 0.316 µM, first compound 1 µM) 13.9% | viability, T/C (second compound 1 µM, first compound 0.0316 µM) 46.3% | viability, T/C (second compound 1 µM, first compound 0.1 µM) 38.9% | viability, T/C (second compound 1 µM, first compound 0.316 µM) 28% | viability, T/C (second compound 1 µM, first compound 1 µM) 17.2%
< 31.6 nM: IC50 [5]

CC(=O)c1c(C)c2cnc(Nc3ccc(N4CCNCC4)cn3)nc2n(C2CCCC2)c1=O + CC(C)NCC(C(=O)N1CCN(c2ncnc3c2C(C)CC3O)CC1)c1ccc(Cl)cc1
inactive: viability, T/C [26] 74.1% | viability, T/C [27] 63.7% | viability, T/C [14] 51% | viability, T/C [15] 51.6% | viability, T/C [16] 52.9% | viability, T/C [17] 48.2% | viability, T/C [28] 44.5% | viability, T/C [29] 43.3% | viability, T/C [18] 43.8% | viability, T/C [19] 40.1% | viability, T/C [20] 33.8% | viability, T/C [21] 30.7% | viability, T/C [30] 26.3% | viability, T/C [31] 23.8% | viability, T/C [22] 19.6% | viability, T/C [23] 17.2% | viability, T/C [24] 15.8% | viability, T/C [25] 14.8% | viability, T/C (second compound 3.16 µM, first compound 0.000949 µM) 15.3% | viability, T/C (second compound 3.16 µM, first compound 0.003 µM) 14.2% | viability, T/C (second compound 3.16 µM, first compound 0.00949 µM) 14.2% | viability, T/C (second compound 3.16 µM, first compound 0.03 µM) 13.3% | viability, T/C (second compound 3.16 µM, first compound 0.0949 µM) 11.3% | viability, T/C (second compound 3.16 µM, first compound 0.3 µM) 10.7% | viability, T/C (second compound 10 µM, first compound 0.000949 µM) 13.5% | viability, T/C (second compound 10 µM, first compound 0.003 µM) 12.9% | viability, T/C (second compound 10 µM, first compound 0.00949 µM) 12.5% | viability, T/C (second compound 10 µM, first compound 0.03 µM) 11.6% | viability, T/C (second compound 10 µM, first compound 0.0949 µM) 11.5% | viability, T/C (second compound 10 µM, first compound 0.3 µM) 10.8%
< 0.949 nM: IC50 [4] | IC50 [5] | IC50 (curve of first compound, second compound 3.16 µM) | IC50 (curve of first compound, second compound 10 µM)
> 300 nM: IC50 [3]

CC(=O)c1c(C)c2cnc(Nc3ccc(N4CCNCC4)cn3)nc2n(C2CCCC2)c1=O
inactive: viability, T/C (compound 0.000949 µM) 95.8% and 105% | viability, T/C (compound 0.003 µM) 96.3% and 95.7% | viability, T/C (compound 0.00949 µM) 88.9% and 83.5% | viability, T/C (compound 0.03 µM) 63.2% and 72.3% | viability, T/C (compound 0.0949 µM) 56.1% and 64.3% | viability, T/C (compound 0.3 µM) 62.9% and 61.2%
> 300 nM: IC50 (curve of compound)

COc1c(OCCCN2CCOCC2)ccc2c3n(c(=NC(=O)c4cnc(N)nc4)nc12)CCN3
6.8% and 11.9%: viability, T/C (compound 0.316 µM)
29.2 nM and 146 nM: IC50 (curve of compound)
inactive: viability, T/C (compound 0.00316 µM) 97.6% and 101% | viability, T/C (compound 0.01 µM) 79% and 99.4% | viability, T/C (compound 0.0316 µM) 47.7% and 104% | viability, T/C (compound 0.1 µM) 21.7% and 69.3%
5.07% and 9.47%: viability, T/C (compound 1 µM)
